Experimental data reported in PubChem BioAssay (NCI).
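Compound exposure: 48 hours, 5 concentrations, 96-well plates. TGI: total growth inhibition.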

Legend:
Assay in all cases: DTP human tumour cell line panel, 48 h
OVCAR-3 ovarian = tested on: OVCAR-3 ovarian
SW-620 colon = tested on: SW-620 colon
U251 CNS = tested on: U251 CNS
NCI-H23 lung = tested on: NCI-H23 lung
IGROV1 ovarian = tested on: IGROV1 ovarian
SK-MEL-5 melanoma = tested on: SK-MEL-5 melanoma
SF-268 CNS = tested on: SF-268 CNS
SF-295 CNS = tested on: SF-295 CNS
HT29 colon = tested on: HT29 colon
DU-145 prostate = tested on: DU-145 prostate
PC-3 prostate = tested on: PC-3 prostate

CNC(=O)C(C)C1CCC2(C)C=CC(=O)C(C)=C2C1O (centres undefined)
TGI (OVCAR-3 ovarian): > 100 µM
TGI (SW-620 colon): > 100 µM
TGI (U251 CNS): > 64.9 µM
TGI (NCI-H23 lung): > 100 µM
TGI (IGROV1 ovarian): > 100 µM
TGI (SK-MEL-5 melanoma): > 60.1 µM
TGI (SF-268 CNS): > 100 µM
TGI (SF-295 CNS): > 70.8 µM
TGI (HT29 colon): > 100 µM

COc1ccc2c(=O)c(O)c(-c3ccc(OC)c(OC)c3)oc2c1
TGI (OVCAR-3 ovarian): 11.9 µM
TGI (SW-620 colon): > 100 µM
TGI (U251 CNS): > 100 µM
TGI (DU-145 prostate): > 100 µM
TGI (PC-3 prostate): > 100 µM
TGI (IGROV1 ovarian): > 100 µM
TGI (SK-MEL-5 melanoma): > 100 µM
TGI (SF-268 CNS): > 100 µM
TGI (SF-295 CNS): 33.1 µM
TGI (HT29 colon): > 100 µM

CCOC(=O)N1CCC2(CC1)C[C@](C)(C(C)=O)C(C)O2 (some centres undefined)
TGI (OVCAR-3 ovarian): > 100 µM
TGI (SW-620 colon): > 100 µM
TGI (U251 CNS): > 100 µM
TGI (PC-3 prostate): > 100 µM
TGI (NCI-H23 lung): > 100 µM
TGI (IGROV1 ovarian): > 100 µM
TGI (SK-MEL-5 melanoma): > 100 µM
TGI (SF-268 CNS): > 100 µM
TGI (SF-295 CNS): > 100 µM
TGI (HT29 colon): > 100 µM

CC[C@@]1(O)C(=O)OCc2c1cc1n(c2=O)Cc2c-1nc1ccccc1c2/C=N\NC(=O)CN
TGI (OVCAR-3 ovarian): > 91 µM
TGI (SW-620 colon): > 100 µM
TGI (U251 CNS): > 61.5 µM
TGI (PC-3 prostate): > 100 µM
TGI (NCI-H23 lung): 1.04 µM
TGI (IGROV1 ovarian): > 66.7 µM
TGI (SK-MEL-5 melanoma): 1.88 µM
TGI (SF-268 CNS): 16.7 µM
TGI (SF-295 CNS): 6.13 µM
TGI (HT29 colon): > 49.7 µM

CNS(=O)(=O)NNS(=O)(=O)c1ccc2ccccc2c1
TGI (OVCAR-3 ovarian): > 100 µM
TGI (SW-620 colon): > 100 µM
TGI (U251 CNS): > 100 µM
TGI (NCI-H23 lung): > 100 µM
TGI (IGROV1 ovarian): > 100 µM
TGI (SK-MEL-5 melanoma): > 100 µM
TGI (SF-268 CNS): > 100 µM
TGI (SF-295 CNS): > 100 µM
TGI (HT29 colon): > 100 µM

CC(=O)Nc1ccc(-c2nnc(SCC(=O)Nc3ccc([N+](=O)[O-])cc3)o2)cc1
TGI (OVCAR-3 ovarian): 28.1 µM
TGI (SW-620 colon): 29.7 µM
TGI (U251 CNS): 28 µM
TGI (NCI-H23 lung): 25 µM
TGI (IGROV1 ovarian): 23.4 µM
TGI (SK-MEL-5 melanoma): 25.9 µM
TGI (SF-268 CNS): 27.7 µM
TGI (SF-295 CNS): 27.4 µM
TGI (HT29 colon): 27.3 µM

O=C1OCC(O)=C1C(c1ccc(Cl)cc1)c1cc2c(cc1O)OCO2 (centres undefined)
TGI (OVCAR-3 ovarian): > 100 µM
TGI (SW-620 colon): > 100 µM
TGI (DU-145 prostate): > 100 µM
TGI (PC-3 prostate): > 100 µM
TGI (IGROV1 ovarian): > 100 µM
TGI (SK-MEL-5 melanoma): > 100 µM
TGI (SF-268 CNS): > 100 µM
TGI (HT29 colon): > 100 µM

O=C1CCC(=O)N1n1c(Cc2ccccc2)n[nH]c1=O
TGI (OVCAR-3 ovarian): > 100 µM
TGI (SW-620 colon): > 100 µM
TGI (U251 CNS): > 100 µM
TGI (DU-145 prostate): > 100 µM
TGI (PC-3 prostate): > 100 µM
TGI (IGROV1 ovarian): > 100 µM
TGI (SK-MEL-5 melanoma): > 100 µM
TGI (SF-268 CNS): > 100 µM
TGI (SF-295 CNS): > 100 µM
TGI (HT29 colon): > 100 µM

O=S1(=O)NC(=NCc2c[nH]c3ccccc23)N(c2ccccc2)c2ccncc21
TGI (OVCAR-3 ovarian): > 100 µM
TGI (SW-620 colon): > 100 µM
TGI (U251 CNS): > 100 µM
TGI (DU-145 prostate): > 100 µM
TGI (PC-3 prostate): > 100 µM
TGI (NCI-H23 lung): > 100 µM
TGI (SK-MEL-5 melanoma): > 100 µM
TGI (SF-268 CNS): 75.6 µM
TGI (SF-295 CNS): > 100 µM
TGI (HT29 colon): > 100 µM

O=C(Nc1ccc(C2=NCCN2)cc1)c1cncc(C(=O)Nc2ccc(C3=NCCN3)cc2)c1
TGI (OVCAR-3 ovarian): > 100 µM
TGI (SW-620 colon): > 100 µM
TGI (U251 CNS): > 100 µM
TGI (NCI-H23 lung): > 100 µM
TGI (IGROV1 ovarian): > 100 µM
TGI (SK-MEL-5 melanoma): > 100 µM
TGI (SF-268 CNS): > 31.6 µM
TGI (SF-295 CNS): > 100 µM
TGI (HT29 colon): > 100 µM

Clc1ccc(/C=C/c2nc3ccccc3s2)cc1Cl
TGI (OVCAR-3 ovarian): > 100 µM
TGI (U251 CNS): > 100 µM
TGI (DU-145 prostate): > 100 µM
TGI (PC-3 prostate): 3.66 µM
TGI (NCI-H23 lung): > 100 µM
TGI (IGROV1 ovarian): > 100 µM
TGI (SK-MEL-5 melanoma): > 100 µM
TGI (SF-268 CNS): > 100 µM
TGI (SF-295 CNS): > 100 µM
TGI (HT29 colon): > 100 µM
